Test results published in patent US9151743B2, “Use of EEF1A as biomarker and a method of screening MetAP2 inhibitors” (MERCK PATENT GMBH, priority 2008, dated 2015).

Key:
[1] = test system: bEND3, HT1080, HCT116 cells (EEF1A1 Band 2); assay: IEF separation of cellular extracts after MetAP2 inhibitor treatment, Coomassie Blue staining; assay type: cell-based, mouse, human; conditions: 100 nM TNP-470; 1 μM A-832234; versus DMSO-treated cells
Experimental: (§1) Cellular extracts were electrophoretically separated for detailed analysis. Isoelectric focusing electrophoresis was performed in a gradient range of pH 7-9. The IEF gels (CleanGel IEF ultra ETC1001-52 from ETC, Germany) were re-hydrated in 7 M urea, 2 M thiourea, 1% DTE, 4% CHAPS, 3%, Servalyte 7-9 for 120 min, and assembled on a Multiphor II electrophoresis unit (GE Healthcare). Samples (5 μl) were applied close to the anode and run with anode buffer (6 M glycine) and cathode fluid 10 (Serva, Germany). […] Separation was performed at 2000 V for 210 min, followed by band sharpening at 2500 V for 10 min. After removal the gel was equilibrated in transfer buffer (50 mM Tris-HCl pH 7.5, 4 M guanidinium chloride, 1 mg/ml DTT) for a diffusion blot onto PVDF membrane and run overnight. Subsequently, the membrane was stained either with Coomassie Blue or immunostained with rabbit PcAb anti-human EEF1A1 (Proteintech Group, USA; 11402-1-AP) for 3 h and detected with ECL-Plus reagent (GE Healthcare).
IEF separation of cellular extracts after treatment of different endothelial and cancer cells (mouse: bEND3, human: HT1080, HCT116) was performed in a range of pH 7-9 (FIG. 1). Comparing extracts from DMSO-treated and MetAP2 inhibitor-treated (100 nM TNP-470; […] . A zoomed view is shown in FIG. 2.

EEF1A1 in bEND3 cells = assay: EEF1A1 electrophoretic mobility shift in IEF gel, bEND3 cell extracts; assay type: cell-based, mouse; conditions: for EEF1A1 mobility shift versus negative controls (FIG. 10): bEND3 cells, 48 h, concentrations of Table 1
Experimental: as §1
The compounds used were characterized as inhibitors of MetAP2 and inhibitors of HUVEC cell proliferation with the indicated potencies (IC50).

HUVEC endothelial cells = assay: Inhibition of HUVEC cell proliferation (colorimetric BrdU-Elisa); conditions: Homo sapiens, 72 h, read-out: Inhibition of HUVEC proliferation (BrdU incorporation) (IC50)
Experimental: In this case the compounds were incubated in serial dilutions with the HUVEC endothelial cells for 72 h and subsequently processed for BrdU detection.

MetAP2 = MetAP2 (Homo sapiens, UniProt P50579); assay: Inhibition of MetAP2 activity: cleavage of tripeptide Met-Ala-Ser, enzyme-coupled detection of methionine; assay type: biochemical
Sequence of MetAP2 (P50579 whole entry, species assumed): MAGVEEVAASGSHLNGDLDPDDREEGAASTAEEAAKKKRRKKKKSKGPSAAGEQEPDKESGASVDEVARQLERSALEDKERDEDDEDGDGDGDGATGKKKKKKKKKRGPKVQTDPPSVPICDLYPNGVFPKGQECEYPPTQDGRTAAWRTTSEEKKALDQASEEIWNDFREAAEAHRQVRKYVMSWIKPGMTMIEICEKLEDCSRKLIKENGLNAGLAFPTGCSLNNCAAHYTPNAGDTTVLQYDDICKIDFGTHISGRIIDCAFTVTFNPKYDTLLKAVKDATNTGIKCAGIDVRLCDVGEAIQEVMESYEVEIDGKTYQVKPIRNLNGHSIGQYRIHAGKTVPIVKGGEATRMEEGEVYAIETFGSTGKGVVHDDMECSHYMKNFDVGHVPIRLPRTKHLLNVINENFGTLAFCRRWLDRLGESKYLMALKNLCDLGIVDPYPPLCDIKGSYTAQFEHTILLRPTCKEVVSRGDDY

CCN(CC)C/C=C\c1cc(F)ccc1S(=O)(=O)Nc1ccc2c(c1C(=O)O)CCCC2 [Compound A-832234, 2-[2-((Z)-3-Diethylamino-propenyl)-4-fluoro-benzenesulfonylamino]-5,6,7,8-tetrahydro-naphthalene-1-carboxylic acid]
new protein band (Band 2) after IEF pH 7-9 [1]: a novel protein band | EEF1A1 mobility shift versus negative controls (FIG. 10) (EEF1A1 in bEND3 cells): active MetAP2 inhibitors

CO[C@@H]1[C@H](OC(=O)NC(=O)CCl)CC[C@]2(CO2)[C@H]1[C@@]1(C)O[C@@H]1CC=C(C)C [TNP470]
IC50 (HUVEC endothelial cells): 0.1 nM | new protein band (Band 2) after IEF pH 7-9 [1]: a novel protein band | IC50 (MetAP2): 14 nM | EEF1A1 mobility shift, time course (EEF1A1 in bEND3 cells; bEND3 cell extract, TNP470, up to 48 h): a second band (Band 2) with increasing intensity was already to be seen after 2 h | EEF1A1 mobility shift versus negative controls (FIG. 10) (EEF1A1 in bEND3 cells): active MetAP2 inhibitors
